In patent US10294470B2, “Electronic expression of the inward rectifier in cardiocytes derived from human induced pluripotent stem cells” (The Research Foundation for The State University of New York, priority 2013, dated 2019):

System: h-iPSC-derived cardiac myocytes
Assay: Current clamp action potential recording in paced h-iPSC-derived cardiac myocytes with and without electronic IK1
Format: cell-based, human
Details: 1 μM; for effect on action potential duration (APD): paced cells with electronic expression of IK1,synthetic; for effect on action potential duration / repolarization / effect on spontaneous activity: paced cells without electronic IK1
Method: Commercially-available iPSC-derived cardiac myocytes (iCell Dynamics, WI), were prepared according to manufacturer's instructions. Briefly, ICELL® cardiac myocytes (cryopreserved single-cell suspensions in 1 ml cryovials) were stored in liquid nitrogen. Vials were thawed in a waterbath (37° C.). Cells were washed then rinsed with 1 ml of RT “ICELL® Cardiomyocyte Plating Medium.” An additional 8 ml of plating medium was added and cells mixed with solution by gentile inversion. Cardiocytes were seeded on 15 mm cover-slips coated with 0.01% (w/v) gelatin solution in 12-well plates. Cardiocytes were seeded (20,000-40,000/dish) in 2 ml of RT plating medium, permitting single cell culture, and incubated for 2+ days at 37° C., 7% CO2. Non adherent cells were removed by rinsing with “ICELL® Cardiomyocyte Maintenance Medium.” A further 2 ml of maintenance medium was added. Maintenance medium was changed every 2 days, and cells were used within 1 week.
iPSC-derived cardiocytes were voltage clamped. Currents were recorded using whole-cell clamp at RT. Cells in the recording chamber (300 μl) were continuously perfused with Tyrode. Pipettes fabricated from borosilicate glass (Flaming/Brown horizontal micropipette puller) and tips heat-polished (NARISHIGE® microforge). Pipettes contained (mM): 10 NaCl, 125 KCl, 1 MgSO4, 5 EGTA, 5 ATP (Mg salt), 5 Tris-creatinephosphate, 0.3 GTP, 10 HEPES, pH 7.2. Extracellular solution (mM): 150 NaCl, 5.4 KCl, 0.5 Na2HPO4, 1 MgCl2, 2 CaCl2), 10 glucose, 10 HEPES, pH7.4. After establishing a seal (1-10 Gohm), suction and voltage pulses were used to rupture the patch. Currents were recorded (Axopatch-1D, Molecular Dynamics, CA) and interfaced to a PENTIUM® 4 computer via a DIGIDATA® 1322A (Molecular Dynamics, CA). PCLAMP® 9.0 (Molecular Dynamics, CA) was used to control protocols and data acquisition.
We used an Analog and Digital I/O board PCIe-DAS1602/16 (Measurement Computing Corporation) installed on a on a DELL PRECISION® T7500 workstation with 2 INTEL® XEON® CPU E5520 to transfer the Vm signal to the signal of IK1 current. Source code is in the supplement.
Analysis was performed using PCLAMP® 9 (Molecular Dynamics). Action potential duration (APD) was computed for 50% (APD50) and 90% (APD90) of repolarization in ms. Maximum rate of rise of the AP upstroke was determined (dVm/dtmax) in mV/ms. Resting membrane potential was recorded prior to each AP. For spontaneous APs, the diastolic characteristics were reported for the period of time between complete AP repolarization and the beginning of depolarization in the subsequent AP. Duration, and minimum/mean potentials were computed for the diastolic period.
In order to overcome the lack of IK1 in h-iPSC-derived cardiac myocytes, we developed a variation of the dynamic clamp approach to inject a synthetic version of IK1 (FIG. 1). The center of the system is the isolated h-iPSC-derived cardiac myocyte under whole cell voltage or current clamp. Whole cell clamp is accomplished with a gigaseal under conventional current clamp mode. The membrane voltage of the cardiac myocyte is output from the amplifier and fed into a computer via a digitizer which calculates the inward rectifier current for the membrane potential, according to the equation shown in FIG. 1. The calculated value of IK1,Synthetic is passed through a potentiometer (used to adjust amplitude without sacrificing digital resolution) to scale IK1 and then summed with the standard stimulation input from PCLAMP®. A switch allows rapid changes between conventional current clamp and summed input. When the summed input is switched on, the myocyte receives the sum of two inputs: the standard AP stimulus current plus IK1,Synthetic from the real-time current simulator. The standard voltage clamp electronics can be driven via the summing circuit without modification of conventional voltage clamp and data recording with only minor software selection changes of input/output channels. […]

## COC(=O)C1=C(C)NC(C)=C([N+](=O)[O-])C1c1ccccc1C(F)(F)F (stereo not drawn) [BayK-8644]
  effect on action potential duration (APD): clear AP prolongation
  effect on action potential duration / repolarization: not uniformly observed
  effect on spontaneous activity: termination of spontaneous full scale AP activity
Listed as BayK8644
  effect on action potential duration (APD): APD is prolonged
  effect on action potential duration / repolarization: severely shortened repolarization
  effect on spontaneous activity: terminated spontaneous activity
With IK1,synthetic
  arrhythmogenic phenomenon of alternans: alternans is observed
With IK1,synthetic expression
  Ratio of APD90 with/without BayK8644: major increase in APD
Without IK1,synthetic expression
  Ratio of APD90 with/without BayK8644: anomalous decrease in APD90
